Source: US20190071416A1, “COMPOUNDS FOR TREATMENT OF CANCER AND EPIGENETICS” (Agency For Science, Technology and Research, priority 2015, published 2019)
Where two headings read alike, the source gives them in different places.

Target: T1, SMYD3 (Homo sapiens, UniProt Q9H7B4)
T1 sequence (Q9H7B4 1-428): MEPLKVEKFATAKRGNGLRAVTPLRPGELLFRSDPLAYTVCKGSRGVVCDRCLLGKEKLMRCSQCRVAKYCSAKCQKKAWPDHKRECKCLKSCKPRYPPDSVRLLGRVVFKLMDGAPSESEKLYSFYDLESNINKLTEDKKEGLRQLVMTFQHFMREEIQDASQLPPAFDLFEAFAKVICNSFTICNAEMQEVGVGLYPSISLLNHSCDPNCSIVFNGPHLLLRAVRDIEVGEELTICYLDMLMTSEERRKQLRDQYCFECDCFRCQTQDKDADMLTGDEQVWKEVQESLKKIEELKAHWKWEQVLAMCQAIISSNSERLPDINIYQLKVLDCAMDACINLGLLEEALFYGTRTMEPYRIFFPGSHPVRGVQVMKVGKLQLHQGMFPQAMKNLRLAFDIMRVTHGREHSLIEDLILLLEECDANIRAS
Experiment: SMYD3 biochemical assay (MTase-Glo, MAP3K2 peptide substrate)
Conditions: for IC50: read-out: IC50
How it was run: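 Luminescent readout of SAH production (coupled SAH→ATP conversion, MTase-Glo) after SMYD3 reacted 30 min at room temperature with 1.0 µM SAM and 10 µM MAP3K2 peptide, both final. Non-linear regression gave IC50 values.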

[1] = Table 3, MTase assay, MAP3K2 peptide substrate

NC(=O)C1CCN(CC(=O)Nc2ccc(Br)cc2)CC1 [X1, reference compound]
activity against SMYD3: inactive
IC50 (Table 4, prior art compounds): > 250 µM

CCCOC(=O)N1C2CC1CN(C(=O)c1ccc3c(Cl)c4c(nc3c1)CCCC4)C2 [A019, Propyl 3-(9-chloro-5,6,7,8-tetrahydroacridine-3-carbonyl)-3,6-diazabicyclo[3.1.1]heptane-6-carboxylate]
IC50 [1]: 13.1 µM

CCCOC(=O)N1CCN(C(=O)c2ccc3c(Cl)cc(-c4ccc5nn(C)cc5c4)nc3c2)C[C@@H]1C [B170, Propyl (S)-4-(4-chloro-2-(2-methyl-2H-indazol-5-yl)quinoline-7-carbonyl)-2-methylpiperazine-1-carboxylate]
IC50 [1]: 0.26 µM

COc1ccc(-c2cc(Cl)c3ccc(C(=O)N4CCN(C(=O)c5cn(C6CC6)nn5)CC4)cc3n2)cc1CN [D014, (2-(3-(Aminomethyl)-4-methoxyphenyl)-4-chloroquinolin-7-yl)(4-(1-cyclopropyl-1H-1,2,3-triazole-4-carbonyl)piperazin-1-yl)methanone]
IC50 [1]: 0.069 µM

C=CCC1CCCc2c1nc1cc(C(=O)N3CCN(C(=O)OCCC)CC3)ccc1c2Cl (stereo not shown) [A146, Propyl 4-(5-allyl-9-chloro-5,6,7,8-tetrahydroacridine-3-carbonyl)piperazine-1-carboxylate]
IC50 [1]: 0.56 µM

CCCOC(=O)N1CCN(C(=O)c2ccc3c(Cl)cc(-c4ccc(OC)c(CN(C)C)c4)nc3c2)CC1 [B104, Propyl 4-(4-chloro-2-(3-((dimethylamino)methyl)-4-methoxyphenyl)quinoline-7-carbonyl)piperazine-1-carboxylate]
IC50 [1]: 0.12 µM

CCCOC(=O)N1CCN(C(=O)c2ccc3c(Cl)c4c(nc3c2)CCCC4)CC1CCO (stereo not shown) [A060, Propyl 4-(9-chloro-5,6,7,8-tetrahydroacridine-3-carbonyl)-2-(2-hydroxyethyl)piperazine-1-carboxylate]
IC50 [1]: 2.7 µM

CCCOC(=O)N1CCN(C(=O)c2ccc3c(Cl)c4c(nc3c2)CCC(CC(=O)OC)C4)[C@@H](C)C1 (stereo partly drawn) [A084, Propyl (3S)-4-(9-chloro-7-(2-methoxy-2-oxoethyl)-5,6,7,8-tetrahydroacridine-3-carbonyl)-3-methylpiperazine-1-carboxylate]
IC50 [1]: 0.12 µM

CCCOC(=O)N1CCN(C(=O)c2ccc3c(Cl)c4c(nc3c2)CCC(CC(=O)OC)C4)C[C@H]1C (stereo partly drawn) [A063, Propyl (2R)-4-(9-chloro-7-(2-methoxy-2-oxoethyl)-5,6,7,8-tetrahydroacridine-3-carbonyl)-2-methylpiperazine-1-carboxylate]
IC50 [1]: 0.25 µM

CCCOC(=O)N1CCN(C(=O)c2ccc3c(Cl)cc(-c4ccc(F)c(CN)c4)nc3c2)CC1 [B172, Propyl 4-(2-(3-(aminomethyl)-4-fluorophenyl)-4-chloroquinoline-7-carbonyl)piperazine-1-carboxylate]
IC50 [1]: 0.039 µM

CCCOC(=O)N1CCN(C(=O)c2ccc3c(Cl)c4c(nc3c2)C(C)CCC4)CC1 (stereo not shown) [A118, Propyl 4-(9-chloro-5-methyl-5,6,7,8-tetrahydroacridine-3-carbonyl)piperazine-1-carboxylate]
IC50 [1]: 0.18 µM

C#Cc1ccc(-c2cc(Cl)c3ccc(C(=O)N4CCN(C(=O)OCCC)[C@H](C)C4)cc3n2)cc1 [B059, Propyl (R)-4-(4-chloro-2-(4-ethynylphenyl)quinoline-7-carbonyl)-2-methylpiperazine-1-carboxylate]
IC50 [1]: 1 µM

CCCOC(=O)N1CCN(C(=O)c2ccc3c(Cl)c4c(nc3c2)CC(c2ncccc2C)CC4)CC1 (stereo not shown) [A096, Propyl 4-(9-chloro-6-(3-methylpyridin-2-yl)-5,6,7,8-tetrahydroacridine-3-carbonyl)piperazine-1-carboxylate]
IC50 [1]: 1.2 µM

CCCOC(=O)N1CCN(C(=O)c2ccc3c(Cl)c(C)c(-c4ccccc4)nc3c2)[C@H](C)C1 [B017, Propyl (R)-4-(4-chloro-3-methyl-2-phenylquinoline-7-carbonyl)-3-methylpiperazine-1-carboxylate]
IC50 [1]: 0.3 µM

CCCOC(=O)N1CCN(C(=O)c2ccc3c(Cl)c4c(nc3c2)CC(c2ccccn2)CC4)CC1 (single isomer, unassigned) [A053 (Ent-2), Propyl (R/S)-4-(9-chloro-6-(pyridin-2-yl)-5,6,7,8-tetrahydroacridine-3-carbonyl)piperazine-1-carboxylate]
IC50 [1]: 0.24 µM

CCCOC(=O)N1CCN(C(=O)c2ccc3c(Cl)c(C)c(-c4ccc(C(F)(F)F)cc4)nc3c2)CC1 [B020, Propyl 4-(4-chloro-3-methyl-2-(4-(trifluoromethyl)phenyl)quinoline-7-carbonyl)piperazine-1-carboxylate]
IC50 [1]: 3.2 µM

CC(C)Cc1cc(C(=O)N2CCN(C(=O)c3ccc4c(Cl)c5c(nc4c3)CCCC5)CC2)no1 [A007, (9-Chloro-5,6,7,8-tetrahydroacridin-3-yl)(4-(5-isobutylisoxazole-3-carbonyl)piperazin-1-yl)methanone]
IC50 [1]: 6.9 µM

C#Cc1ccc(C2CCc3c(nc4cc(C(=O)N5CCN(C(=O)OCCC)C[C@@H]5C)ccc4c3Cl)C2)nc1 (stereo partly drawn) [A150, Propyl (3S)-4-(9-chloro-6-(5-ethynylpyridin-2-yl)-5,6,7,8-tetrahydroacridine-3-carbonyl)-3-methylpiperazine-1-carboxylate]
IC50 [1]: 0.26 µM

CCCOC(=O)N1CCN(C(=O)c2ccc3c(Cl)c(C)c(-c4cccc(N)c4)nc3c2)CC1 [B044, Propyl 4-(2-(3-aminophenyl)-4-chloro-3-methylquinoline-7-carbonyl)piperazine-1-carboxylate]
IC50 [1]: 0.045 µM

CCCOC(=O)N1CCN(C(=O)c2ccc3c(Cl)c4c(nc3c2)CC(c2ncccc2C)CC4)[C@@H](C)C1 (stereo partly drawn) [A101, Propyl (3S)-4-(9-chloro-6-(3-methylpyridin-2-yl)-5,6,7,8-tetrahydroacridine-3-carbonyl)-3-methylpiperazine-1-carboxylate]
IC50 [1]: 1.7 µM

CCCOC(=O)N1CCN(C(=O)c2ccc3c(Cl)cc(-c4ccc(C(C)N5CCCC5)cc4)nc3c2)C[C@H]1C (stereo partly drawn) [B283, Propyl (2R)-4-(4-chloro-2-(4-(1-(pyrrolidin-1-yl)ethyl)phenyl)quinoline-7-carbonyl)-2-methylpiperazine-1-carboxylate]
IC50 [1]: 0.28 µM

CCCOC(=O)N1CCN(C(=O)c2ccc3c(Cl)c4c(nc3c2)CC(C(=O)OC)CC4)CC1 (stereo not shown) [A044, Methyl 9-chloro-6-(4-(propoxycarbonyl)piperazine-1-carbonyl)-1,2,3,4-tetrahydroacridine-3-carboxylate]
IC50 [1]: 0.62 µM

CCCOC(=O)N1CCN(C(=O)c2ccc3c(Cl)c4c(nc3c2)CCC(CCN(C)C)C4)CC1 (stereo not shown) [A075, Propyl 4-(9-chloro-7-(2-(dimethylamino)ethyl)-5,6,7,8-tetrahydroacridine-3-carbonyl)piperazine-1-carboxylate]
IC50 [1]: 0.21 µM

CCCOC(=O)N1CCN(C(=O)c2ccc3c(Cl)cc(-c4ccc(C(=O)NC)c(F)c4)nc3c2)[C@@H](C)C1 [B240, Propyl (S)-4-(4-chloro-2-(3-fluoro-4-(methylcarbamoyl)phenyl)quinoline-7-carbonyl)-3-methylpiperazine-1-carboxylate]
IC50 [1]: 0.25 µM

CCCOC(=O)N1CCN(C(=O)c2ccc3c(Cl)c4c(nc3c2)CCCC4)CC1C#N (stereo not shown) [A117, Propyl 4-(9-chloro-5,6,7,8-tetrahydroacridine-3-carbonyl)-2-cyanopiperazine-1-carboxylate]
IC50 [1]: 0.12 µM

CCCOC(=O)N1CCN(C(=O)c2ccc3c(Cl)c4c(nc3c2)CC(CCN(C)C)CC4)[C@@H](C)C1 (stereo partly drawn) [A126, Propyl (3S)-4-(9-chloro-6-(2-(dimethylamino)ethyl)-5,6,7,8-tetrahydroacridine-3-carbonyl)-3-methylpiperazine-1-carboxylate]
IC50 [1]: 0.11 µM

CCCOC(=O)N1CCN(C(=O)c2ccc3c(Cl)cc(-c4cnc5[nH]nc(C)c5c4)nc3c2)CC1 [B173, Propyl 4-(4-chloro-2-(3-methyl-1H-pyrazolo[3,4-b]pyridin-5-yl)quinoline-7-carbonyl)piperazine-1-carboxylate]
IC50 [1]: 2.5 µM

CCCOC(=O)N1CCN(C(=O)c2ccc3c(Cl)c4c(nc3c2)C(c2ccccc2)CCC4)CC1 (stereo not shown) [A119, Propyl 4-(9-chloro-5-phenyl-5,6,7,8-tetrahydroacridine-3-carbonyl)piperazine-1-carboxylate]
IC50 [1]: 1.9 µM

CCCOC(=O)N1CCN(C(=O)c2ccc3c(Cl)cc(-c4ccc(C(N)=O)cc4)nc3c2)C[C@@H]1C [B146, Propyl (S)-4-(2-(4-carbamoylphenyl)-4-chloroquinoline-7-carbonyl)-2-methylpiperazine-1-carboxylate]
IC50 [1]: 0.042 µM

CCCOC(=O)N1CCN(C(=O)c2ccc3c(Cl)cc(-c4ccc(F)c(CN(C)C)c4)nc3c2)CC1 [B167]
IC50 [1]: 0.66 µM

CCCOC(=O)N1CCN(C(=O)c2ccc3c(Cl)cc(-c4cccc(N)c4)nc3c2)CC1 [B077, Propyl 4-(2-(3-aminophenyl)-4-chloroquinoline-7-carbonyl)piperazine-1-carboxylate]
IC50 [1]: 0.12 µM

CCCOC(=O)N1CCN(C(=O)c2ccc3c(Cl)cc(-c4ccc(COCC5CC5)cc4)nc3c2)CC1 [B242, Propyl 4-(4-chloro-2-(4-((cyclopropylmethoxy)methyl)phenyl)quinoline-7-carbonyl)piperazine-1-carboxylate]
IC50 [1]: 0.67 µM

CCCOC(=O)N1CCN(C(=O)c2ccc3c(Cl)cc(-c4ccc5[nH]cnc5c4)nc3c2)CC1 [B139, Propyl 4-(2-(1H-benzo[d]imidazol-5-yl)-4-chloroquinoline-7-carbonyl)piperazine-1-carboxylate]
IC50 [1]: 0.034 µM
